Experimental data as given in patent EP0412158A1, “ONCOSTATIC DRUG” (priority 1987, dated 1988).
Like-named read-outs stand apart in the source and are kept apart here. Marks after values point to notes of the source that are not given here.

System: human breast cancer (MX-1)
Type: in vivo, female nude mice
Settings: for T/C: tumor volume
Procedure: A patch of human breast cancer [cancer cells recommended by National Cancer Institute (NCI) of U.S.A.] (MX-1) measuring approximately 2 x 2 mm in area was transplanted to female nude mice 5 weeks old. For 10 days following the 17th day of the transplantation, an aqueous solution containing 1% by weight of the aforementioned isopropylammonium polymolybdate (Compound A) was administered continuously at a dose of 100 mg/kg or 200 mg/kg once per day by intraperitoneal injection (ip). After the stop of the administration, the volume of tumor was measured daily for 15 or 20 days to evaluate the effect of the compound. With either of the dose of 100 mg/kg and the dose of 200 mg/kg, significant suppression of hyperplasia began to appear around the 6th day of administration of ip (x 10). Even after the stop of the administration (25th or 30th day), a distinct suppression of cancerous hyperplasia of about 70% was retained. Generally, by the NCI standard, a ratio of suppression exceeding 50% is rated as effective. […] For comparison, similar mice to which the human cancer was transplanted and the aqueous solution was not administered were tested by following the procedure described above.

[NH3C3H7(iso)]s (Mo7O24] • 3H2O [Compound A]
suppression of cancerous hyperplasia (100 mg/kg and 200 mg/kg ip ×10, after the stop of the administration (25th or 30th day)): about 70%
Volume of tumor (100 mg/kg ip ×10, 0 day): 278.3±22.0 mm^3
Volume of tumor (100 mg/kg ip ×10, 1 day): 283.3±50.8 mm^3
T/C (100 mg/kg ip ×10, 1 day): 67.3%
Volume of tumor (100 mg/kg ip ×10, 2 day): 302.3±58.6 mm^3
T/C (100 mg/kg ip ×10, 2 day): 58.6%
Volume of tumor (100 mg/kg ip ×10, 3 day): 324.7±123.5 mm^3
T/C (100 mg/kg ip ×10, 3 day): 60.5%
Volume of tumor (100 mg/kg ip ×10, 4 day): 366.3±121.7 mm^3
T/C (100 mg/kg ip ×10, 4 day): 60.7%
Volume of tumor (100 mg/kg ip ×10, 5 day): 413.7±168.8 mm^3
T/C (100 mg/kg ip ×10, 5 day): 57.8%
Volume of tumor (100 mg/kg ip ×10, 6 day): 366.0±121.3 mm^3
T/C (100 mg/kg ip ×10, 6 day): 44.2** %
Volume of tumor (100 mg/kg ip ×10, 7 day): 302.7±173.5 mm^3
T/C (100 mg/kg ip ×10, 7 day): 33.3** %
Volume of tumor (100 mg/kg ip ×10, 9 day): 397.3±226.9 mm^3
T/C (100 mg/kg ip ×10, 9 day): 36.9* %
Volume of tumor (100 mg/kg ip ×10, 10 day): 406.7±202.6 mm^3
T/C (100 mg/kg ip ×10, 10 day): 29.7*** %
Volume of tumor (100 mg/kg ip ×10, 15 day): 734.0±524.0 mm^3
T/C (100 mg/kg ip ×10, 15 day): 33.3* %
Volume of tumor (100 mg/kg ip ×10, 19 day): 994.0±613.0 mm^3
T/C (100 mg/kg ip ×10, 19 day): 37.4* %
Volume of tumor (100 mg/kg ip ×10, 21 day): 1039.0±646.0 mm^3
T/C (100 mg/kg ip ×10, 21 day): 30.0* %
Volume of tumor (100 mg/kg ip ×10, 25 day): 1301.0±912.3 mm^3
T/C (100 mg/kg ip ×10, 25 day): 32.6* %
Volume of tumor (200 mg/kg ip ×10, 1 day): 371.8±10.8 mm^3
Volume of tumor (200 mg/kg ip ×10, 2 day): 439.8±56.9 mm^3
Volume of tumor (200 mg/kg ip ×10, 4 day): 518.8±54.7 mm^3
T/C (200 mg/kg ip ×10, 4 day): 62.1* %
Volume of tumor (200 mg/kg ip ×10, 5 day): 610.5±15.2 mm^3
T/C (200 mg/kg ip ×10, 5 day): 55.9* %
Volume of tumor (200 mg/kg ip ×10, 6 day): 656.8±25.7 mm^3
T/C (200 mg/kg ip ×10, 6 day): 62.9**** %
Volume of tumor (200 mg/kg ip ×10, 7 day): 759.3±84.3 mm^3
T/C (200 mg/kg ip ×10, 7 day): 54.5** %
Volume of tumor (200 mg/kg ip ×10, 8 day): 852.0±126.7 mm^3
T/C (200 mg/kg ip ×10, 8 day): 58.1* %
Volume of tumor (200 mg/kg ip ×10, 9 day): 695.7±29.6 mm^3
T/C (200 mg/kg ip ×10, 9 day): 42.4*** %
Volume of tumor (200 mg/kg ip ×10, 10 day): 759.7±21.1 mm^3
T/C (200 mg/kg ip ×10, 10 day): 41.9** %
Volume of tumor (200 mg/kg ip ×10, 11 day): 816.7±16.7 mm^3
T/C (200 mg/kg ip ×10, 11 day): 39.3** %
Volume of tumor (200 mg/kg ip ×10, 13 day): 1070.0±41.0 mm^3
T/C (200 mg/kg ip ×10, 13 day): 39.9*** %
Volume of tumor (200 mg/kg ip ×10, 16 day): 1110.0±21.0 mm^3
T/C (200 mg/kg ip ×10, 16 day): 34.5*** %
Volume of tumor (200 mg/kg ip ×10, 18 day): 1446.0±75.0 mm^3
T/C (200 mg/kg ip ×10, 18 day): 33.9*** %
Volume of tumor (200 mg/kg ip ×10, 19 day): 1405.0±159.8 mm^3
T/C (200 mg/kg ip ×10, 19 day): 29.9*** %
Volume of tumor (200 mg/kg ip ×10, 22 day): 1583.3±145.2 mm^3
T/C (200 mg/kg ip ×10, 22 day): 30.9*** %
Volume of tumor (200 mg/kg ip ×10, 25 day): 1708.0±243.2 mm^3
T/C (200 mg/kg ip ×10, 25 day): 29.2*** %
Volume of tumor (200 mg/kg ip ×10, 30 day): 2033.7±430.9 mm^3
T/C (200 mg/kg ip ×10, 30 day): 27.2*** %
